These results are taken from ChEMBL document CHEMBL1201862, “PubChem BioAssay data set” (2004).

Active and inactive are the calls of the source.

The nature of assay [1]: cytotoxicity toward DRD oncogenic fibroblasts, dose response, cell-based, non-viral oncogenic, luminescence (AID 1934). The following applies: Homo sapiens. The class given is functional.
Assay [2] has as its target Intestinal-type alkaline phosphatase (Homo sapiens, UniProt P09923). Put plainly: human intestinal alkaline phosphatase activators, dose response, biochemical, luminescence, uHTS hits (AID 463120). The class given is functional.
Assay [3] deals with Serine/threonine-protein kinase TBK1 (Homo sapiens, UniProt Q9UHD2). As to the kind of experiment: Navigating the Kinome. Panel member name: TBK1. The class given is functional.
Assay [4] concerns the target Serine/threonine-protein kinase TAO1 (Homo sapiens, UniProt Q7L7X3). The class given is functional.
For a further assay, the target named is Activin receptor type-1 (Homo sapiens, UniProt Q04771). Put plainly: Navigating the Kinome. Panel member name: ACVR1. The class given is functional.
In assay [5] the target is Serine/threonine-protein kinase N2 (Homo sapiens, UniProt Q16513). The class given is functional.
Assay [6] has as its target Cyclin-dependent kinase 9 (Homo sapiens, UniProt P50750). The class given is functional.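 Further: value from the CDK9 entry of a kinome-spanning kinase panel.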
The target of assay [7] is Serine/threonine-protein kinase Nek2 (Homo sapiens, UniProt P51955). The class given is functional.
The nature of assay [8]: inhibitors of SNCA 5'UTR-driven reporter translation, confirmation, H4 neuroglioma cells, luminescence (AID 1988). The class given is functional, cell-based.
A further assay addresses T1, Hexokinase HKDC1 (Homo sapiens, UniProt Q2TB90).
T1 sequence (Q2TB90 whole entry): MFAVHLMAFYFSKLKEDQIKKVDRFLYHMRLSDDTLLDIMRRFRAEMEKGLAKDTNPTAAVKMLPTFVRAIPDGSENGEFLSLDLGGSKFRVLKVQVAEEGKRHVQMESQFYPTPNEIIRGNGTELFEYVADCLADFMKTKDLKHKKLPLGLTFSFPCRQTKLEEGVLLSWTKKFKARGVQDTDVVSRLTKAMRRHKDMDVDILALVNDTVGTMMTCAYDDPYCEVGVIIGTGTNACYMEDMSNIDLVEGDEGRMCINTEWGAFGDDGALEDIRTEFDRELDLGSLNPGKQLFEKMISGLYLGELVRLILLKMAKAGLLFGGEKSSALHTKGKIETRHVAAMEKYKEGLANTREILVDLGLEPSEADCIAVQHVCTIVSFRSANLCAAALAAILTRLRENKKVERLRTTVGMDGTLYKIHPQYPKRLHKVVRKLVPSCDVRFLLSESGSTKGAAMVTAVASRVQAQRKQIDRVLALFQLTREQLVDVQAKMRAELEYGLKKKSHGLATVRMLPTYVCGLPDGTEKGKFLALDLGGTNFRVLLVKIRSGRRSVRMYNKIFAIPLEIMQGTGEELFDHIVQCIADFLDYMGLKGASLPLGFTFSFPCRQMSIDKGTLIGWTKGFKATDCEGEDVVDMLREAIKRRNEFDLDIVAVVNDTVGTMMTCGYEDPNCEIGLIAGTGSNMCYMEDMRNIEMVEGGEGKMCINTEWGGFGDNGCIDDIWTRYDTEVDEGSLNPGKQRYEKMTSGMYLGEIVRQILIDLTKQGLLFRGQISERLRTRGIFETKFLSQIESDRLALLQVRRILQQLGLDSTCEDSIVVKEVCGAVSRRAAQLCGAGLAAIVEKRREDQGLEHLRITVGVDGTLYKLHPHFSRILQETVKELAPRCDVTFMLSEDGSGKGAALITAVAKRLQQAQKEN
As to the kind of experiment: HKDC1 hexokinase activators, dose response, biochemical, W721R variant (AID 504730). The class given is functional.

In assay [9] the target is ATP-dependent molecular chaperone HSP82 (Candida albicans (strain WO-1) (Yeast), UniProt C4YTQ8). As to the kind of experiment: loss of DOC-induced GRE-beta-galactosidase reporter signal, dose response, Hsp90 inhibitor project, S. cerevisiae, luminescence (AID 2400).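 Further: beta-galactosidase luminescence from glucocorticoid response element reporter as proxy for Hsp90 function; inhibitor potency where signal loss means Hsp90 inhibition.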 The class given is functional, cell-based.
The target in a further assay is T2, Protein RecA (Mycobacterium tuberculosis, UniProt P9WHJ3).
T2 sequence (P9WHJ3 whole entry): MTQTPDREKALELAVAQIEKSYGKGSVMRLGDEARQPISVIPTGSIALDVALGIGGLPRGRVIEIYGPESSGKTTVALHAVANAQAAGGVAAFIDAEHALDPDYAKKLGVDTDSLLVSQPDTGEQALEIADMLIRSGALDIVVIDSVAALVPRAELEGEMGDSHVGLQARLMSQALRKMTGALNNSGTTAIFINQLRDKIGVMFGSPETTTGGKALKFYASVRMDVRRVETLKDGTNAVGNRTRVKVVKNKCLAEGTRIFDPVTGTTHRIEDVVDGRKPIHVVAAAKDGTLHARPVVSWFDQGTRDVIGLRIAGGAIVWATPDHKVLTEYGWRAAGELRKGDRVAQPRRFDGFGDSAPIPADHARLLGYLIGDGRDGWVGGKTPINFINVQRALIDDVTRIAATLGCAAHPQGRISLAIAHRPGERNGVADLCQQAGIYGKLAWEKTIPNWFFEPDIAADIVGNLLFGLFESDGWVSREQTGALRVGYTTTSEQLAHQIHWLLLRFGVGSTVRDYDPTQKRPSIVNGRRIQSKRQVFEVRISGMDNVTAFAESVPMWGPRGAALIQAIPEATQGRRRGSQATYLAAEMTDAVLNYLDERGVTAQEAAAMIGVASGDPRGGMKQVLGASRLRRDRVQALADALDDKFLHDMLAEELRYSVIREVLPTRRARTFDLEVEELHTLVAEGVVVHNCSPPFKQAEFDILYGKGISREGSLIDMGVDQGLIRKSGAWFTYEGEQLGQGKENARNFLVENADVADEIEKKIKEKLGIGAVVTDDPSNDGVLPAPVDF
As to the kind of experiment: Fluorescence Cell-Free Homogeneous Dose Retest to Identify Inhibitors of RecA-Intein Splicing Activity. [Related pubchem assays (depositor defined):AID2097, AID2223, AID489010, AID492950]. The class given is functional.

For assay [10], the target named is Tyrosyl-DNA phosphodiesterase 2 (Homo sapiens, UniProt O95551). As to the kind of experiment: human TDP2 enzyme inhibitors, dose response, biochemical, epi absorbance, IC50 (AID 743297).

Cyclin-dependent kinase 9, sequence (P50750 whole entry): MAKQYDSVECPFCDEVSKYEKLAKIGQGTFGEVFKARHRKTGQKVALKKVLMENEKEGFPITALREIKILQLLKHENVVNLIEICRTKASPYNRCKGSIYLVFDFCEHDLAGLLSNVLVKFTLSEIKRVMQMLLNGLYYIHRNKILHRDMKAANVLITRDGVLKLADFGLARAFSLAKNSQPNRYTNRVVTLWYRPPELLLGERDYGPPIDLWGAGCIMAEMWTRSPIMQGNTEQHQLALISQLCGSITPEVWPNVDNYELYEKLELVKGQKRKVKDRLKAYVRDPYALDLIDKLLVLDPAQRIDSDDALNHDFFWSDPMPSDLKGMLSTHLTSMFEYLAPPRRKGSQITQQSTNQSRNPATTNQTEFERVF
Serine/threonine-protein kinase TBK1, sequence (Q9UHD2 whole entry): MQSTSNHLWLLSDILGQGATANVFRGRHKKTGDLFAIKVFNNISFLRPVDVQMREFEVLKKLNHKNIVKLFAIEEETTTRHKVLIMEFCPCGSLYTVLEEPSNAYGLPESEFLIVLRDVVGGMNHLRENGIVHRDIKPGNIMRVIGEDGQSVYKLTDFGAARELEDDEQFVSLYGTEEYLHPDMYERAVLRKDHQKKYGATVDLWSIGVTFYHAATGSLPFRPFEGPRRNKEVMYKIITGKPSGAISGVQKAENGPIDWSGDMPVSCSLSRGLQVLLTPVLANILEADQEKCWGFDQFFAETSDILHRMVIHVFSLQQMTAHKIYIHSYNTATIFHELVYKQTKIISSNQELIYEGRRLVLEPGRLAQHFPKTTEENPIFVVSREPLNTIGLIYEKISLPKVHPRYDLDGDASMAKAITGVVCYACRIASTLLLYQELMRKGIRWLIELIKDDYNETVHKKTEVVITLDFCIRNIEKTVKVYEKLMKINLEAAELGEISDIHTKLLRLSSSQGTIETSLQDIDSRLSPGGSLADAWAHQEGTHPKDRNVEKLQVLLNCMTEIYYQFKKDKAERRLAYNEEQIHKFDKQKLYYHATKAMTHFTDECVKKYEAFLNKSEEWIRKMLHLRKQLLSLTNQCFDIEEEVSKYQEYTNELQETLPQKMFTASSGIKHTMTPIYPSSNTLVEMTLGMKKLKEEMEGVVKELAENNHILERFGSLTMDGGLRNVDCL
Serine/threonine-protein kinase TAO1, sequence (Q7L7X3 whole entry): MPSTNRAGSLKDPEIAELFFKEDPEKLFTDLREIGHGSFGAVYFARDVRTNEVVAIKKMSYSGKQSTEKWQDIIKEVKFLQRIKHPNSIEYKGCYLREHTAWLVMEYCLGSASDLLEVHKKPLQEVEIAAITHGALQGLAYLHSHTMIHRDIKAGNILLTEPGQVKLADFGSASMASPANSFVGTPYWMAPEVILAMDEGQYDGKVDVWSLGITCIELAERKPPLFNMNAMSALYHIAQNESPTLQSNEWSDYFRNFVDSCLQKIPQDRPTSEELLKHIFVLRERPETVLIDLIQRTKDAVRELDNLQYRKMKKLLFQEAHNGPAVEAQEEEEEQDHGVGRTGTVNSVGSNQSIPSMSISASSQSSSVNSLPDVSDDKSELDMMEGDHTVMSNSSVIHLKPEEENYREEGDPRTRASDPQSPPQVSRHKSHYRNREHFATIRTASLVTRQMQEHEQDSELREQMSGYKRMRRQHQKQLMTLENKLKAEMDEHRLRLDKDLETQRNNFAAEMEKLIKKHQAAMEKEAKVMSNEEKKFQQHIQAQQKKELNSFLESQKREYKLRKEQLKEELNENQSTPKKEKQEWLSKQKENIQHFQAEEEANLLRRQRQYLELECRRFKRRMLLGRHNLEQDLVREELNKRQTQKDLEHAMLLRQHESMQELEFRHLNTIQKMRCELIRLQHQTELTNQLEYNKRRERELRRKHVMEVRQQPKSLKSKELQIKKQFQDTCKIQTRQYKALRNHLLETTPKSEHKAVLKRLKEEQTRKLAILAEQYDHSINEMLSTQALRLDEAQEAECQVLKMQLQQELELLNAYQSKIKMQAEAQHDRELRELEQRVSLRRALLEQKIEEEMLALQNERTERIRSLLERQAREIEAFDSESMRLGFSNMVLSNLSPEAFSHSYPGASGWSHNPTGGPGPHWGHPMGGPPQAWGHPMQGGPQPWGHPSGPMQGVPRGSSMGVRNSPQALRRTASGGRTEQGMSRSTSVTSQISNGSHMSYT
Intestinal-type alkaline phosphatase, sequence (P09923 whole entry): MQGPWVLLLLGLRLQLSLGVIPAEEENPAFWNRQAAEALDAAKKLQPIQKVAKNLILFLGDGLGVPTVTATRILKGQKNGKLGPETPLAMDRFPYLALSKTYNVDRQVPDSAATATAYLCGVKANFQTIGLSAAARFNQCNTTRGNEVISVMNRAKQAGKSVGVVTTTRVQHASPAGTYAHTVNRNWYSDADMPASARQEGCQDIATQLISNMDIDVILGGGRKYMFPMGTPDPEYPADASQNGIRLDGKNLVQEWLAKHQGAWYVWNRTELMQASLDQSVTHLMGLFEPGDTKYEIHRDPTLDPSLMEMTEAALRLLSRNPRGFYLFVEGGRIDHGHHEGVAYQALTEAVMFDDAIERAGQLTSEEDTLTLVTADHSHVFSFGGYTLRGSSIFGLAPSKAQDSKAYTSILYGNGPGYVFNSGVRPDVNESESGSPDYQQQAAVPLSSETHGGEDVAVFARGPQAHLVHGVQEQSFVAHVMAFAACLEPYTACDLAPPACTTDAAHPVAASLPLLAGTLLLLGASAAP
ATP-dependent molecular chaperone HSP82, sequence (C4YTQ8 whole entry): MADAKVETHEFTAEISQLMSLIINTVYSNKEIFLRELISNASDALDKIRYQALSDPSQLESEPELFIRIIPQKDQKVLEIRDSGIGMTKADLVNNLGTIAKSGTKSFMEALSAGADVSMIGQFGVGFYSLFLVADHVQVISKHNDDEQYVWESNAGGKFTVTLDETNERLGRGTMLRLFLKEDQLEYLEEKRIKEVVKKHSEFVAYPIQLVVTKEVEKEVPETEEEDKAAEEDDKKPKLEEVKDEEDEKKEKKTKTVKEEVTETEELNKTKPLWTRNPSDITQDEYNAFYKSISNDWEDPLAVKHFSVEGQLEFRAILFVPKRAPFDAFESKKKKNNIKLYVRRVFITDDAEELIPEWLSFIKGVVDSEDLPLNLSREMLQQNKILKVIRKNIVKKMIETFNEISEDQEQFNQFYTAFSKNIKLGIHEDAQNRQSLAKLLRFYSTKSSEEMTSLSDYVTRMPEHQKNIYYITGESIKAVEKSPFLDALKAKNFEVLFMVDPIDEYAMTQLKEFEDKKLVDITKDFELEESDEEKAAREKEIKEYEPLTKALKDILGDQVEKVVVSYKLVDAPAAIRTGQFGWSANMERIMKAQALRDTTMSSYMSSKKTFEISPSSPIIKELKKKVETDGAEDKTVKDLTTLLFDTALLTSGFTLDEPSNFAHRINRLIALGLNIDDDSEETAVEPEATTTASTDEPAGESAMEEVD
Activin receptor type-1, sequence (Q04771 whole entry): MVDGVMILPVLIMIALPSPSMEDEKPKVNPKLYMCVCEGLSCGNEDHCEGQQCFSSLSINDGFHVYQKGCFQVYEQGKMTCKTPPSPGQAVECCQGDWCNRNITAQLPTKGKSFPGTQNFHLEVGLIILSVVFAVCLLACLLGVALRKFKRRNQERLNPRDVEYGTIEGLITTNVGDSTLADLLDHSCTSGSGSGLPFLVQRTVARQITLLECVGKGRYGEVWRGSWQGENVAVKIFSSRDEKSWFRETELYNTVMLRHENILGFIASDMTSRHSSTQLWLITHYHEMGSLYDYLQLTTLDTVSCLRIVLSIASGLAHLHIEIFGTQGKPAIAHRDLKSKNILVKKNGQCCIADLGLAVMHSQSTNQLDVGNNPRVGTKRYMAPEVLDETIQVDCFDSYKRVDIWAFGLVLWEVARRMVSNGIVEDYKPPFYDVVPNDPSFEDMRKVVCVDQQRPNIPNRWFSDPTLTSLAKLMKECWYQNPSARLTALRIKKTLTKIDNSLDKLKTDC
Serine/threonine-protein kinase N2, sequence (Q16513 whole entry): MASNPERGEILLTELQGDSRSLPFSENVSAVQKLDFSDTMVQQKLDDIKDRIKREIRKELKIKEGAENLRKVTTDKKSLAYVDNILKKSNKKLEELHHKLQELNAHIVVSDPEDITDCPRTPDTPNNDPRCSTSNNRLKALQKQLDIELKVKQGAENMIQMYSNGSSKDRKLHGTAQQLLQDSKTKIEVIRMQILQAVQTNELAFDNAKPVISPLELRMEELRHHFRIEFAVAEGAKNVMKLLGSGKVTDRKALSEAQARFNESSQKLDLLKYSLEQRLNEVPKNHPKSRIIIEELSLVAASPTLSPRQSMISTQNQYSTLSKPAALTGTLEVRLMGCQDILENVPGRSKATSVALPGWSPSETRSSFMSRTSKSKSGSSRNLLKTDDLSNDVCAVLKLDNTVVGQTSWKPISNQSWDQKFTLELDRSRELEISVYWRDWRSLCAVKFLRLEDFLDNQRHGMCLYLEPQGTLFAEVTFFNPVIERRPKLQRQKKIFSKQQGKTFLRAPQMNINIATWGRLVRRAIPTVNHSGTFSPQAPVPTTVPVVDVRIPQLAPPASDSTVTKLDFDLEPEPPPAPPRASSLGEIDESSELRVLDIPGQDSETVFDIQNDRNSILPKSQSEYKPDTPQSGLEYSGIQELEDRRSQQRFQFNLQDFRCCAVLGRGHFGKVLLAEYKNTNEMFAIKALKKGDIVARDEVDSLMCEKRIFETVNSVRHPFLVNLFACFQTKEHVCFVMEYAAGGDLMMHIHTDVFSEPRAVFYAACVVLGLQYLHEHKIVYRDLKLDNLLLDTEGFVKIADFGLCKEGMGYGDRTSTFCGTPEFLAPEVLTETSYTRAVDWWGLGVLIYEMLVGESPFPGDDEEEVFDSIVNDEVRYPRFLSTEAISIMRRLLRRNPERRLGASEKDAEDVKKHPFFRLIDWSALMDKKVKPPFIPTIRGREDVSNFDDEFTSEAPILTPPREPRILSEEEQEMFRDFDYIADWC

What is called EC50 is the midpoint of the concentration-response curve. For `O=C(N/N=C/c1c(O)ccc2ccccc12)c1[nH]ncc1Br`, the EC50 was 3.04 µM (active) in assay [1] and 7.56 µM (active) in assay [2].
What is called Ki is a dissociation constant, usually derived from enzyme kinetics or from competition with a known ligand. Take `O=C(Nc1cc(-c2c[nH]c3ncccc23)cc(Cl)n1)c1ccccc1`: the Ki is > 3.16 µM (inactive) in [3]; > 6.31 µM (inactive) in [4]; > 3.98 µM (inactive) on Activin receptor type-1; > 5.01 µM (inactive) in [5]; > 1.58 µM (inactive) in [6].
`Nc1c(-c2ccc(NC(=O)Nc3cccc(C(F)(F)F)c3)cc2)cnc2c(-c3ccc4c(c3)OCO4)cnn12`: the Ki in [3] is > 3.16 µM (inactive); in assay [4], > 6.31 µM (inactive); in assay [7], 1.26 µM (active); in [6], > 1.58 µM (inactive).
As for `CCN1C(=Cc2sc3ccccc3[n+]2C)C=Cc2cccc(C)c21`, the results for the EC50 (in assay [8]; on Hexokinase HKDC1; in [9]) were < 0.1 µM (active), > 80 µM (inactive) and 37.3 µM (active), respectively.
By IC50 is commonly meant the concentration needed to halve the response being measured. For the compound `O=C(Cc1ccccc1Cl)NC1(O)C(=O)c2ccccc2C1=O`, on Protein RecA, the EC50 was 8.18 µM (active). In assay [10], the IC50 is 11.5 µM (inactive).
